Test results as given in patent publication US11084783B2, “O-alkyl-benzylideneguanidine derivatives and therapeutic use for the treatment of disorders associated with an accumulation of misfolded proteins” (INFLECTIS BIOSCIENCE, priority 2014, dated 2021).

Experiments:
HeLa cells [1] = experiment: Cytoprotection from ER stress (tunicamycin), cell viability by WST-8; assay type: cell-based; design: key to Cytoprotection from ER stress compared to guanabenz: +: lower cytoprotective effect compared to Guanabenz; ++: similar cytoprotective effect compared to Guanabenz; +++: higher cytoprotective effect compared to Guanabenz; conditions: HeLa cells, 6 hour exposure to tunicamycin 5 μg/mL, compounds 0.5-10 μM, viability 48 h or 72 h
Text: Cytoprotection against ER stress can be measured by a suitable assay. For example, cytoprotection can be measured in HeLa cells in which ER stress is elicited by the addition of media containing tunicamycin, a mixture of homologous nucleoside antibiotics that inhibits the UDP-HexNAc: polyprenol-P HexNAc-1-P family of enzymes and is used to induce unfolded protein response. Cell viability can be detected in the presence and absence of inhibitor compounds after a set period of time, by measuring the reduction of WST-8 into formazan using a standard cell viability kit (such as Cell Viability Counting Kit-8 from Dojindo). Cytoprotection from ER stress is measured in terms of the percentage increase in viable cells (relative to control) after ER stress. Further details of a suitable assay are set forth in the accompanying Examples section.
This assay is described in Tsaytler et al. (Science 2011). HeLa Cells were cultured in Eagle's Minimum Essential Medium (EMEM) supplemented with Glutamine, Sodium Pyruvate, Non-Essential Amino Acids, Penicillin and Streptomycin containing 10% Foetal Bovine Serum (FBS), at 37° C. in 5% CO2 atmosphere. Cells were plated in 96 well plates at a density of 17,000 cells/mL the day before the treatment. ER stress was elicited by addition of 5 μg/mL tunicamycin (Sigma-Aldrich) together with PPP1R15A inhibitors (0.5-10 μM). Media were changed 6h later with fresh media and the cytoprotection was maintained by the addition of PPP1R15A inhibitors (0.5-10 μM). Cell viability was assessed by measuring the reduction of WST-8 into formazan using Cell Counting Kit-8 (Sigma) according to the supplier's recommendation, 48 h or 72h after tunicamycin treatment. Cytoprotection from ER stress is measured in terms of cytoprotective potency effect compared to the reference compound Guanabenz (Tsaytler et al., Science 2011) after ER stress: • ‘+’ no cytoprotective effect; • ‘+’ lower cytoprotective effect compared to Guanabenz; • ‘++’ similar cytoprotective effect compared to Guanabenz; • ‘+++’ higher cytoprotective effect compared to Guanabenz.
Table 1 summarizes the results of cytoprotective effect of different compounds of the invention, compared to guanabenz, after the stress induced by a 6 hour exposure of tunicamycin.

human alpha2A receptor = biological target: T1, human alpha2A receptor (Homo sapiens, UniProt P08913); experiment: Functional GPCR assay for adrenergic α2A receptor (CellKey detection method); assay type: cell-based; conditions: agonist activity, CHO cells expressing human alpha2A receptor, impedance (CellKey); read-out: Functional adrenergic alpha2 receptor assay EC50
T1 construct: CHO cells endogenously expressing human alpha2A receptor; endogenous in cells; host or cells: CHO cells
T1 sequence (P08913 1-465): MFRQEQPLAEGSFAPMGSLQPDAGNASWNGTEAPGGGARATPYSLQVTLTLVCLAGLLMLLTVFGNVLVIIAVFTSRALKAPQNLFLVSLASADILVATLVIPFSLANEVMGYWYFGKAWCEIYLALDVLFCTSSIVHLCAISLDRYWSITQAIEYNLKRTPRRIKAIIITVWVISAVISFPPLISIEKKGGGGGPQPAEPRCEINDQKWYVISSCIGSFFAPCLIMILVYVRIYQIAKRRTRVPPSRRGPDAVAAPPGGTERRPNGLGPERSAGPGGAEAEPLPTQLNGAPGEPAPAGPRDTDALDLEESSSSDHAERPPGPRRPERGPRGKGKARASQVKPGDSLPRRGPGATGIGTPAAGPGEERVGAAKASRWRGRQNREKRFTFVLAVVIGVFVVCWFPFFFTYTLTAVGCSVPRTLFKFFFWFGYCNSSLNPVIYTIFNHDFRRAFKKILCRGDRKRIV
Procedure: The agonist activity of compounds was evaluated on CHO cells […] expressing human alpha2A receptor and was determined by measuring their effects on impedance modulation using the CellKey detection method. Cells were seeded onto 96-well plate at density of 6×10^4 cells/well in HBSS buffer (Invitrogen)+20 mM HEPES (Invitrogen) with 0.1% BSA and are allowed to equilibrate for 60 min at 28° C. before the start of the experiment. Plates were placed onto the system and measurements were made at a temperature of 28° C. Solutions were added simultaneously to all 96 wells using an integrated fluidics system: HBSS (basal control), reference agonist at 100 nM (stimulated control), reference agonist (EC50 determination) or the test compounds. Impedance measurements are monitored for 10 minutes after ligand addition. The standard reference agonist is epinephrine, which is tested in each experiment at several concentrations to generate a concentration-response curve from which its EC50 value is calculated.
Dose-response data from test compounds were analysed with Hill software using non-linear regression analysis of the concentration-response curves generated with mean replicate values using Hill equation curve fitting.

Min6 cells = experiment: Protection against accumulation of misfold prone Insulin Akita; assay type: cell-based; conditions: Min6 cells nucleofected with Insulin Akita, viability 9 days after treatment
Procedure: Min6 cells were nucleofected with Insulin^Akita mutant constructs and seeded in 96 well-plates at 300,000 cells/mL and 24h later, cells were treated with molecules or left untreated. As a control, cells were nucleofected with non-relevant plasmid. 6 days later, a selective agent was added (G418). Cell viability was assessed by measuring the reduction of WST-8 into formazan using Cell Counting Kit-8 (Sigma) according to the supplier's recommendation, 9 days after treatment.

Min6 insulinoma cell = experiment: Min6 cell line cytoprotection from ER stress (tunicamycin); assay type: cell-based; conditions: 6 hour exposure to tunicamycin 2.5 μg/mL, different concentrations, viability 72h
Procedure: (§1) Cells were plated in 96 well plates at a density of 0.5.10^6 cells/mL for Min6 cell line, 0,4.10^6 cells/mL for INS1 cell line the day before the treatment. ER stress was elicited by addition of 2.5 μg/mL tunicamycin (Sigma Aldrich) together with phosphatases inhibitors. Media were changed 6h later with fresh media and the cytoprotection was maintained by the addition of phosphatases inhibitors. Cell viability was assessed by measuring the reduction of WST-8 into formazan using Cell Counting Kit-8 (Sigma) according to the supplier's recommendation, 72h after tunicamycin treatment.

INS1 insulinoma cell = experiment: INS1 cell line cytoprotection from ER stress (tunicamycin); assay type: cell-based; conditions: 6 hour exposure to tunicamycin 2.5 μg/mL, different concentrations, viability 72h
Procedure: as §1

[2] = tested on: mouse embryonic fibroblasts lipofected with poly I:C; experiment: In vitro inflammation/infection model: poly I:C induced mouse embryonic fibroblasts; assay type: cell-based; conditions: 25 μM, 6h, IFN-beta ELISA in culture supernatants
Procedure: Mouse Embryonic Fibroblasts (MEFs) were lipofected with poly I:C and treated with […] compounds of the invention (25 μM) for 6h. After 6h of culture, elF2alpha-phosphorylation (elF2a-P) and PPP1R15A (GADD34) expression was monitored by western blotting, while type-1 Interferon(IFN)-beta production was quantified in culture supernatants by ELISA. Control (nt) and poly I:C/DMSO are respectively negative and positive controls. Poly I:C (polyinosinic:polycytidylic acid or polyinosinic-polycytidylic acid sodium salt) is an immunostimulant used to simulate viral infections. Poly I:C which is structurally similar to double-stranded RNA, is known to interact with toll-like receptor 3 which is expressed in the intracellular compartments of B-cells and dendritic cells. Guanabenz (25 μM) was used as reference inhibitory compound.
MEFs were cultured in DMEM, 10% FCS (HyClone, Perbio), 100 units/ml penicillin, 100 μg/ml streptomycin, 2 mM glutamine, 1× MEM non-essential amino acids and 50 μM 2-mercaptoethanol. MEFS were treated for the indicated time with 10 μg/ml poly I:C (InvivoGen) in combination with lipofectamine 2000 (Invitrogen).
Cells were lysed in 1% Triton X-100, 50 mM Hepes, 10 mM NaCl, 2.5 mM MgCl2, 2 mM EDTA, 10% glycerol, supplemented with Complete Mini Protease Inhibitor Cocktail Tablets (Roche). Protein quantification was performed using the BCA Protein Assay (Pierce). 25-50 μg of Triton X-100-soluble material was loaded on 2%-12% gradient or 8% SDS-PAGE before immunoblotting and chemi-luminescence detection (SuperSignal West Pico Chemi-luminescent Substrate, Pierce). Rabbit polyclonal antibodies recognizing GADD34 (C-19) were from Santa Cruz Biotechnology and anti-elF2alpha[pS^52] were from Invitrogen.
IFN-beta quantification in culture supernatant was performed using the Mouse Interferon Beta ELISA kit (PBL Interferon Source) according to manufacturer instructions.
Normal response of MEFs to poly I:C is characterized by PPP1R15A expression, increase in elF2alpha-P (variable in time and related to the levels PPP1R15A expression) mediated by PKR activation and type-I IFN production (range 500 to 700 pg/ml). Knock out PPP1R15A MEFs are unable to produce this cytokine in response to poly I:C.
The potency of compounds of the invention to inhibit PPP1R15A was evaluated by measuring the increase of elF2alpha phosphorylation, the decrease of PPP1R15A expression due to its own pharmacological inhibition resulting in general protein synthesis inhibition and type-I IFN production.

HeLa cells [3] = conditions: tunicamycin; Tsaytler et al., Science 2011; cited from earlier work

Row | EC50 (human alpha2A receptor) [µM] | Structure (SMILES) | Cytoprotection from ER stress compared to guanabenz (HeLa cells [1]) | prevention of cell death associated with accumulation of misfold prone Insulin Akita (FIG. 6) (Min6 cells) | prevention of Min6 insulinoma cell death (FIG. 7) (Min6 insulinoma cell) | prevention of INS1 insulinoma cell death (FIG. 8) (INS1 insulinoma cell) | prevention of type-I IFN production (FIG. 9) [2] | protection of cells from cytotoxic ER stress (HeLa cells [3])
1 | > 33.3 | CCONC(=N)N/N=C/c1ccncc1Cl [Compound 16, 2-[(3-chloropyridin-4-yl)methylidene]-N-ethoxyhydrazinecarboximidamide] | + | prevent cell death | prevent Min6 insulinoma cell death | prevent INS1 insulinoma cell death | prevent type-I IFN production | 
2 |  | CCC1(C2=NCCN2)Cc2ccccc2O1 (centres unmarked) [efaroxan] |  |  |  |  |  | Neither the α2-adrenergic receptor agonist clonidine, nor the α2-adrenergic receptor antagonist efaroxan protected cells
3 |  | Clc1cccc(Cl)c1N=C1NCCN1 [clonidine] |  |  |  |  |  | Neither the α2-adrenergic receptor agonist clonidine, nor the α2-adrenergic receptor antagonist efaroxan protected cells
